Earlier results on 5 compounds are cited in patent US12090222B2, “Method for dyeing keratin material, comprising the use of an organosilicon compound, two dyeing compounds and a post-treatment agent” (Henkel AG & Co. KGaA, priority 2020, dated 2024).

The conditions of this data set: 25° C.

In the case of `O=S(=O)([O-])c1ccc(N=Nc2c(O)ccc3ccccc23)cc1.[Na+]` [Acid Orange 7, sodium salt of 4-[(2-hydroxy-1-naphthyl)azo]benzene sulphonate], the solubility in water result is “more than 7 g/L”. Consider `Nc1cc(S(=O)(=O)[O-])cc2cc(S(=O)(=O)[O-])c(N=Nc3ccccc3)c(O)c12.[Na+].[Na+]` [Acid Red 33, disodium salt of 5-amino-4-hydroxy-3-(phenylazo)-naphthalene-2,7-disulphonate], for which the solubility in water entry is listed as “about 2.5 g/L”.

As for `O=C([O-])c1c(Cl)c(Cl)c(Cl)c(Cl)c1-c1c2c(Br)cc(=O)c(Br)c-2oc2c(Br)c(O)cc(Br)c12.O=C([O-])c1c(Cl)c(Cl)c(Cl)c(Cl)c1-c1c2c(Br)cc(=O)c(Br)c-2oc2c(Br)c(O)cc(Br)c12.[Na+].[Na+]` [Acid Red 92, disodium salt of 3,4,5,6-tetrachloro-2-(1,4,5,8-tetrabromo-6-hydroxy-3-oxoxanthen-9-yl)benzoic acid], the solubility in water result was “greater than 10 g/L”. On to `O=C([O-])C1=NN(c2ccc(S(=O)(=O)[O-])cc2)C(=O)C1N=Nc1ccc(S(=O)(=O)[O-])cc1.[Na+].[Na+].[Na+]` (centres unmarked) [Acid Yellow 23, trisodium salt of 4,5-dihydro-5-oxo-1-(4-sulfophenyl)-4-((4-sulfophenyl)azo)-1H-pyrazole-3-carboxylic acid], for which the “solubility in water (in words)” value is reported as “highly soluble”.

“mixture of the sodium salts of mono- and disulfonic acids of 2-(2-quinolyl)-1H-indene-1,3(2H)-dione [Acid Yellow 3]”: the solubility in water entry is on record as “about 20 g/L”.
